From the supplement of paper PMC10307832

Assays:
Experiment in all cases: relative viability (nuclei count vs DMSO), 5 days (fraction); higher = more cells survive
[1] = tested on: NCI-H2170
Procedure, shortened: (§1)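 Medians of duplicate plates are given as relative viability. That measure is the nuclei count in treated wells divided by the count in vehicle wells. Counts were taken on 4× images of lung cancer cell lines in 1536-well plates, 5 days after pin-tool dosing the day after seeding with one drug alone or a fixed anchor-drug dose plus five library-drug doses (not always all listed) in √10 steps.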

[2] = tested on: EKVX
Procedure, shortened: as §1

[3] = tested on: NCI-H2087
Procedure, shortened: as §1

[4] = tested on: NCI-H1395
Procedure, shortened: as §1

[5] = tested on: NCI-H2009
Procedure, shortened: as §1

[6] = tested on: NCI-H1734
Procedure, shortened: as §1

[7] = tested on: NCI-H2228
Procedure, shortened: as §1

[8] = tested on: HCC-366
Procedure, shortened: as §1

[9] = tested on: NCI-H1355
Procedure, shortened: as §1

[10] = tested on: BEN
Procedure, shortened: as §1

[11] = tested on: HCC-827
Procedure, shortened: as §1

[12] = tested on: SK-LU-1
Procedure, shortened: as §1

[13] = tested on: NCI-H2405
Procedure, shortened: as §1

[14] = tested on: HARA
Procedure, shortened: as §1

[15] = tested on: NCI-H661
Procedure, shortened: as §1

[16] = tested on: NCI-H596
Procedure, shortened: as §1

[17] = tested on: NCI-H647
Procedure, shortened: as §1

[18] = tested on: SK-MES-1
Procedure, shortened: as §1

[19] = tested on: NCI-H2342
Procedure, shortened: as §1

[20] = tested on: NCI-H1437
Procedure, shortened: as §1

[21] = tested on: LC-2-ad
Procedure, shortened: as §1

[22] = tested on: LOU-NH91
Procedure, shortened: as §1

For `CC1(C)CCC(c2ccc(Cl)cc2)=C(CN2CCN(c3ccc(C(=O)NS(=O)(=O)c4ccc(N[C@H](CCN5CCOCC5)CSc5ccccc5)c(S(=O)(=O)C(F)(F)F)c4)cc3)CC2)C1` [Navitoclax] + Cc1cc(Nc2cc(N3CCN(C)CC3)nc(Sc3ccc(NC(=O)C4CC4)cc3)n2)n[nH]1 [Tozasertib] (partner 0.1 µM), the relative viability ([1]; first compound 0.005 µM) was 0.716, the relative viability ([1]; first compound 0.01581 µM) was 0.71 and the relative viability ([1]; first compound 0.05 µM) was 0.689. It also gave a relative viability ([1]; first compound 0.1581 µM) of 0.684, a relative viability ([1]; first compound 0.5 µM) of 0.665 and a relative viability ([2]; first compound 0.005 µM) of 0.411. It also gave a relative viability ([2]; first compound 0.01581 µM) of 0.388, a relative viability ([2]; first compound 0.05 µM) of 0.323 and a relative viability ([2]; first compound 0.1581 µM) of 0.44. For the same compound, the relative viability ([2]; first compound 0.5 µM) was 0.294, the relative viability ([3]; first compound 0.005 µM) was 0.245 and the relative viability ([3]; first compound 0.01581 µM) was 0.236. The relative viability ([3]; first compound 0.1581 µM) was 0.197, the relative viability ([3]; first compound 0.5 µM) was 0.294 and the relative viability ([4]; first compound 0.005 µM) was 0.703. For the same compound, the relative viability ([4]; first compound 0.01581 µM) was 0.738, the relative viability ([4]; first compound 0.05 µM) was 0.757 and the relative viability ([4]; first compound 0.1581 µM) was 0.787. For the same compound, the relative viability ([4]; first compound 0.5 µM) was 0.81, the relative viability ([5]; first compound 0.005 µM) was 0.692 and the relative viability ([5]; first compound 0.01581 µM) was 0.79. The relative viability ([5]; first compound 0.05 µM) was 0.713, the relative viability ([5]; first compound 0.1581 µM) was 0.769 and the relative viability ([5]; first compound 0.5 µM) was 0.711. It also gave a relative viability ([6]; first compound 0.005 µM) of 0.253, a relative viability ([6]; first compound 0.01581 µM) of 0.259 and a relative viability ([6]; first compound 0.1581 µM) of 0.201. It also gave a relative viability ([6]; first compound 0.5 µM) of 0.194, a relative viability ([7]; first compound 0.005 µM) of 0.343 and a relative viability ([7]; first compound 0.01581 µM) of 0.296. For the same compound, the relative viability ([7]; first compound 0.1581 µM) was 0.285, the relative viability ([7]; first compound 0.5 µM) was 0.212 and the relative viability ([8]; first compound 0.005 µM) was 0.109. It also gave a relative viability ([8]; first compound 0.01581 µM) of 0.11, a relative viability ([8]; first compound 0.1581 µM) of 0.118 and a relative viability ([8]; first compound 0.5 µM) of 0.117. The relative viability ([9]; first compound 0.005 µM) was 0.549, the relative viability ([9]; first compound 0.01581 µM) was 0.589 and the relative viability ([9]; first compound 0.05 µM) was 0.456. It also gave a relative viability ([9]; first compound 0.1581 µM) of 0.585, a relative viability ([9]; first compound 0.5 µM) of 0.518 and a relative viability ([10]; first compound 0.005 µM) of 0.536. For the same compound, the relative viability ([10]; first compound 0.01581 µM) was 0.568, the relative viability ([10]; first compound 0.05 µM) was 0.522 and the relative viability ([10]; first compound 0.1581 µM) was 0.451. For the same compound, the relative viability ([10]; first compound 0.5 µM) was 0.421, the relative viability ([11]; first compound 0.005 µM) was 0.437 and the relative viability ([11]; first compound 0.01581 µM) was 0.453. It also gave a relative viability ([11]; first compound 0.05 µM) of 0.384, a relative viability ([11]; first compound 0.1581 µM) of 0.39 and a relative viability ([11]; first compound 0.5 µM) of 0.454. The relative viability ([12]; first compound 0.005 µM) was 0.326, the relative viability ([12]; first compound 0.01581 µM) was 0.324 and the relative viability ([12]; first compound 0.05 µM) was 0.308. The relative viability ([12]; first compound 0.1581 µM) was 0.318, the relative viability ([12]; first compound 0.5 µM) was 0.298 and the relative viability ([13]; first compound 0.005 µM) was 0.761. The relative viability ([13]; first compound 0.01581 µM) was 0.787, the relative viability ([13]; first compound 0.05 µM) was 0.735 and the relative viability ([13]; first compound 0.1581 µM) was 0.731. It also gave a relative viability ([13]; first compound 0.5 µM) of 0.681, a relative viability ([14]; first compound 0.005 µM) of 0.0833 and a relative viability ([14]; first compound 0.01581 µM) of 0.113. It also gave a relative viability ([14]; first compound 0.1581 µM) of 0.0955, a relative viability ([14]; first compound 0.5 µM) of 0.0891 and a relative viability ([15]; first compound 0.005 µM) of 0.355. For the same compound, the relative viability ([15]; first compound 0.01581 µM) was 0.344, the relative viability ([15]; first compound 0.05 µM) was 0.341 and the relative viability ([15]; first compound 0.1581 µM) was 0.363. It also gave a relative viability ([15]; first compound 0.5 µM) of 0.358, a relative viability ([16]; first compound 0.005 µM) of 0.776 and a relative viability ([16]; first compound 0.01581 µM) of 0.853. It also gave a relative viability ([16]; first compound 0.1581 µM) of 0.885, a relative viability ([16]; first compound 0.5 µM) of 1.03 and a relative viability ([17]; first compound 0.005 µM) of 0.301. It also gave a relative viability ([17]; first compound 0.01581 µM) of 0.268, a relative viability ([17]; first compound 0.05 µM) of 0.292 and a relative viability ([17]; first compound 0.1581 µM) of 0.27. It also gave a relative viability ([17]; first compound 0.5 µM) of 0.251, a relative viability ([18]; first compound 0.005 µM) of 0.853 and a relative viability ([18]; first compound 0.01581 µM) of 0.976. It also gave a relative viability ([18]; first compound 0.05 µM) of 0.953, a relative viability ([18]; first compound 0.1581 µM) of 0.848 and a relative viability ([18]; first compound 0.5 µM) of 0.952. The relative viability ([19]; first compound 0.005 µM) was 0.537, the relative viability ([19]; first compound 0.01581 µM) was 0.471 and the relative viability ([19]; first compound 0.05 µM) was 0.558. It also gave a relative viability ([19]; first compound 0.1581 µM) of 0.543, a relative viability ([19]; first compound 0.5 µM) of 0.548 and a relative viability ([20]; first compound 0.005 µM) of 0.408. For the same compound, the relative viability ([20]; first compound 0.01581 µM) was 0.407, the relative viability ([20]; first compound 0.05 µM) was 0.357 and the relative viability ([20]; first compound 0.1581 µM) was 0.46. The relative viability ([20]; first compound 0.5 µM) was 0.386, the relative viability ([21]; first compound 0.005 µM) was 0.455 and the relative viability ([21]; first compound 0.01581 µM) was 0.544. The relative viability ([21]; first compound 0.05 µM) was 0.546, the relative viability ([21]; first compound 0.1581 µM) was 0.507 and the relative viability ([21]; first compound 0.5 µM) was 0.343. It also gave a relative viability ([22]; first compound 0.005 µM) of 0.667, a relative viability ([22]; first compound 0.01581 µM) of 0.627 and a relative viability ([22]; first compound 0.05 µM) of 0.714. It also gave a relative viability ([22]; first compound 0.1581 µM) of 0.655 and a relative viability ([22]; first compound 0.5 µM) of 0.563.
